Results reported in article PMC4780864, “Family-wide Structural Analysis of Human Numb-Associated Protein Kinases” (Structure(London, England:1993), 2016).

Key:
Test in all cases: biochemical
[1] = target: AAK1 (Homo sapiens, UniProt Q2M2I8); parameters: kinase domain; Thermal shift assay (DSF, SYPRO Orange), 2 uM kinase domain, mean delta Tm of triplicates versus DMSO; settings: read-out: AAK1
Procedure: (§1) All measurements were performed in triplicate and mean values were reported for all compounds (Table S1). […] However, NAKs are often omitted from selectivity panels, including commercial screens.

[2] = target: T1, MPSK1 (Homo sapiens, UniProt O75716); parameters: Thermal shift assay (DSF, SYPRO Orange), 2 uM kinase domain, mean delta Tm of triplicates versus DMSO; settings: read-out: MPSK1
T1 construct: gene STK16; catalytic domain-containing construct
T1 sequence (O75716 whole entry, the tested form may be a part): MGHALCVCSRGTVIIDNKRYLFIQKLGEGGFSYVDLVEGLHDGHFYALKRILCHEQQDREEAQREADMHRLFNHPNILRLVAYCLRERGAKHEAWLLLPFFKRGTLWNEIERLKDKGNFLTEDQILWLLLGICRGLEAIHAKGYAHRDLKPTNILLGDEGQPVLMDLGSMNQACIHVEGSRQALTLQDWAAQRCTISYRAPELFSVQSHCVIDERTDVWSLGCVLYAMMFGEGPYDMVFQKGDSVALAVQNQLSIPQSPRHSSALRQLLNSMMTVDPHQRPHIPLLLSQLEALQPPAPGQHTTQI
Procedure: as §1

[3] = target: T2, GAK (Homo sapiens, UniProt O14976); parameters: Thermal shift assay (DSF, SYPRO Orange), 2 uM kinase domain, mean delta Tm of triplicates versus DMSO; settings: read-out: GAK
T2 construct: catalytic domain-containing construct
T2 sequence (O14976 1-1311): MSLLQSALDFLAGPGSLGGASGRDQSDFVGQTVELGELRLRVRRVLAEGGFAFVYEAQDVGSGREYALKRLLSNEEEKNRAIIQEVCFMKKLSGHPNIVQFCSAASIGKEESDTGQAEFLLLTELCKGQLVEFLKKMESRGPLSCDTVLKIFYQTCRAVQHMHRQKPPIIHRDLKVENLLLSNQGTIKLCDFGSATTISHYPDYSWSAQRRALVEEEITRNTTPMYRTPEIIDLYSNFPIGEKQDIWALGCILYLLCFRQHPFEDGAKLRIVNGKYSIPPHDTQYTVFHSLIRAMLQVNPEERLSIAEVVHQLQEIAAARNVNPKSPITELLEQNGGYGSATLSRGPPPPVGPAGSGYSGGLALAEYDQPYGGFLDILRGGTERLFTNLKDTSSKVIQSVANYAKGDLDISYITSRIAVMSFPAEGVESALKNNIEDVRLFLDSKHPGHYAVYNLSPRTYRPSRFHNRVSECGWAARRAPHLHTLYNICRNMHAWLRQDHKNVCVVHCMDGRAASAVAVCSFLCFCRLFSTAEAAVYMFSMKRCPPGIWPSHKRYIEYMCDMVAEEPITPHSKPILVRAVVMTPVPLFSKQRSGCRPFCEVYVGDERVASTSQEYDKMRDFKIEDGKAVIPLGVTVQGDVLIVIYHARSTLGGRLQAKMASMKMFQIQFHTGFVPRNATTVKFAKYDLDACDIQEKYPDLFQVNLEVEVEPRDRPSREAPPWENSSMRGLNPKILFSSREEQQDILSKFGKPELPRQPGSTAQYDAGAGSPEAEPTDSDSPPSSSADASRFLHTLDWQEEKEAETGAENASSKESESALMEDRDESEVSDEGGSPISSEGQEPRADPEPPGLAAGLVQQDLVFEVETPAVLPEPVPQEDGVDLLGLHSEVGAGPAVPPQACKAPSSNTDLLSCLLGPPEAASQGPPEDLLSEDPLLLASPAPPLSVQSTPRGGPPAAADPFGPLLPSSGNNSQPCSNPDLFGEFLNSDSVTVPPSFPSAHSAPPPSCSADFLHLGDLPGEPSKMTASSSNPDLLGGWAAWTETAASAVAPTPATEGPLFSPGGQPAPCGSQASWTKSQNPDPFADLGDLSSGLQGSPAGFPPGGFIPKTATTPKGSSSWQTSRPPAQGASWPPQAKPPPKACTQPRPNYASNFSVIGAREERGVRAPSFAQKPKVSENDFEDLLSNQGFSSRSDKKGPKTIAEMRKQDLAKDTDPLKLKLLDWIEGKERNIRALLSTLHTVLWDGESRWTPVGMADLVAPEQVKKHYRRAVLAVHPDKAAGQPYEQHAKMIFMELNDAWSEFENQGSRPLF
Procedure: as §1

[4] = target: T3, BIKE (Homo sapiens, UniProt Q9NSY1); parameters: Thermal shift assay (DSF, SYPRO Orange), 2 uM kinase domain, mean delta Tm of triplicates versus DMSO; settings: read-out: BIKE
T3 construct: gene BMP2K; catalytic domain-containing construct
T3 sequence (Q9NSY1 whole entry, the tested form may be a part): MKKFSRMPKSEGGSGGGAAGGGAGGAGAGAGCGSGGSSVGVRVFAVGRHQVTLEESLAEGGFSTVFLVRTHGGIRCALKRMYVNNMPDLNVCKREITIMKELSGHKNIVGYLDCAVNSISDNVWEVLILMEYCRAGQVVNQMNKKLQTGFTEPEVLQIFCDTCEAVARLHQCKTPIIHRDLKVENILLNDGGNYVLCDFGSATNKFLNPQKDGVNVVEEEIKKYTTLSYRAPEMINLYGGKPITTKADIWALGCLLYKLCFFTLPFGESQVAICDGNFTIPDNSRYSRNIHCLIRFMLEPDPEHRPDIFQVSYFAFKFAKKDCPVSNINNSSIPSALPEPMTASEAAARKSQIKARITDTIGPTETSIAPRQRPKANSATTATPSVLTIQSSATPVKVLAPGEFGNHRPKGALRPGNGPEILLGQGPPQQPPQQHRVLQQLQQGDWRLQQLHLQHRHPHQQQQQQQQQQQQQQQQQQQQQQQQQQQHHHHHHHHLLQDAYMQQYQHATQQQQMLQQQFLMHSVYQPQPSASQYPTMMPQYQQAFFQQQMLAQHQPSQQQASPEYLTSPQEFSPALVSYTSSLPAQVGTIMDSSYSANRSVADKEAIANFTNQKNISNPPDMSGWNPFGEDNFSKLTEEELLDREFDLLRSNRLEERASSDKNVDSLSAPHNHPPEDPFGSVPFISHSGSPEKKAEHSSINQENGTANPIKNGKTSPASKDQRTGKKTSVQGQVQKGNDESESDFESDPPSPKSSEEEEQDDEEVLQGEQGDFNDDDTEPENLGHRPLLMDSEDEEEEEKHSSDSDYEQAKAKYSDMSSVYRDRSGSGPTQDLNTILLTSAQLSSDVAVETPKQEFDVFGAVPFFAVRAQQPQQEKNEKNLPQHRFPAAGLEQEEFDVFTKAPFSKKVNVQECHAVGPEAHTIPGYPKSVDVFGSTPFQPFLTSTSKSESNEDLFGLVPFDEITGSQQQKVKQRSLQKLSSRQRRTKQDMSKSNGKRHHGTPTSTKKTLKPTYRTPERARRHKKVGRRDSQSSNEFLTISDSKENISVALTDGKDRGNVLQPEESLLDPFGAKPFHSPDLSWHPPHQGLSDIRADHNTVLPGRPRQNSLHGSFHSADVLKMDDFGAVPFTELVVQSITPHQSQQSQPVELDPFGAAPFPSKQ
Procedure: as §1

Chain of AAK1 (Q2M2I8 27-365 limits assumed): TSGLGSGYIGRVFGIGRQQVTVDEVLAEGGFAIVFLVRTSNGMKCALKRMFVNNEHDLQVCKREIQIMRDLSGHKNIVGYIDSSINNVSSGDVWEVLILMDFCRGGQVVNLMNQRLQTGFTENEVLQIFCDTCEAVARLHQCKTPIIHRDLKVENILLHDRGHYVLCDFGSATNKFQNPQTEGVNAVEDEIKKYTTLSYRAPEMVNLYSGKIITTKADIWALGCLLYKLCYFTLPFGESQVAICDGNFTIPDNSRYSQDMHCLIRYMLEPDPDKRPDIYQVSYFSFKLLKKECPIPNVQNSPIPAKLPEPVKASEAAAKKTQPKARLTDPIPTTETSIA

SMILES | ΔTm at 12.5 µM [1] | ΔTm at 12.5 µM [2] | ΔTm at 12.5 µM [3] | ΔTm at 12.5 µM [4]
COc1cc(O)c2c(c1)/C=C/C[C@H](O)[C@H](O)C(=O)/C=C\C[C@H](C)OC2=O [(5Z)-7-oxozeaenol, (3S,5Z,8S,9S,11E)-3,4,9,10-tetrahydro-8,9,16-trihydroxy-14-methoxy-3-methyl-1H-2-benzoxacyclotetradecin-1,7(8H)-dione] | 11.4 °C | 1.09 °C | 16.7 °C | 14 °C
COc1cc(N2CCC(N3CCN(C)CC3)CC2)ccc1Nc1ncc(Cl)c(Nc2ccccc2P(C)(C)=O)n1 [AP26113] | 7.77 °C | 2.75 °C | 9.03 °C | 8.42 °C
COc1cc(N2CCC(N3CCN(C)CC3)CC2)ccc1Nc1ncnc(Nc2ccccc2S(=O)(=O)C(C)C)n1 [ASP3026] | 4.23 °C | 1.08 °C | 3.17 °C | 2.92 °C
O=C(Nc1c[nH]nc1-c1nc2ccc(CN3CCOCC3)cc2[nH]1)NC1CC1 [AT9283] | 12.1 °C | 9.49 °C | 4.52 °C | 15.6 °C
CC(C)Oc1cc(Nc2nc(N[C@@H](C)c3ccc(F)cn3)ncc2Cl)n[nH]1 [AZ23] | 1.65 °C | 3.4 °C | 3.09 °C | 3.37 °C
COc1cc(OC2CCN(C)CC2)ccc1Nc1ncc2c(n1)n(C1CCCC1)c(=O)n2C [AZ3146] | 5.37 °C | 4.12 °C | 6.52 °C | 6.16 °C
CCN(CCO)CCCOc1ccc2c(Nc3cc(CC(=O)Nc4cccc(F)c4)[nH]n3)ncnc2c1 [AZD1152-HQPA] |  | 0.953 °C | -0.54 °C | 2.02 °C
Cc1cc(Nc2nc(N[C@@H](C)c3ncc(F)cn3)ncc2Cl)[nH]n1 [AZD1480] | 4.44 °C | 5.04 °C | 0.667 °C | 6.41 °C
CNC(=O)c1cccc(-c2ccc3c(N4CCOC[C@@H]4C)nc(N4CCOC[C@@H]4C)nc3n2)c1 [AZD2014] | 0.373 °C | 1.12 °C | -0.433 °C | 0.477 °C
COc1cc(CCc2cc(NC(=O)c3ccc(N4C[C@@H](C)N[C@@H](C)C4)cc3)n[nH]2)cc(OC)c1 [AZD4547] | 3.26 °C | 6.5 °C | -0.197 °C | 5.45 °C
COc1ccc(-c2ccc3c(N4CCOC[C@@H]4C)nc(N4CCOC[C@@H]4C)nc3n2)cc1CO [AZD8055] | 0.04 °C | 0.947 °C | -0.753 °C | 0.12 °C
Cc1cc(C(=O)NOCCO)c(Nc2ccc(I)cc2F)n(C)c1=O [AZD8330] | 0.187 °C | 0.463 °C | -0.347 °C | 0.227 °C
CN(C)C/C=C/C(=O)Nc1cc2c(Nc3ccc(F)c(Cl)c3)ncnc2cc1O[C@H]1CCOC1 [Afatinib] | 1.31 °C | 0.897 °C | 3.38 °C | 1.95 °C
CCc1cc2c(cc1N1CCC(N3CCOCC3)CC1)C(C)(C)c1[nH]c3cc(C#N)ccc3c1C2=O [Alectinib] | 0.613 °C | 1.29 °C | 6.7 °C | 0.673 °C
COc1cc(Nc2ncc3c(n2)-c2ccc(Cl)cc2C(c2c(F)cccc2OC)=NC3)ccc1C(=O)O [Alisertib] | 0.29 °C | 2.32 °C | -0.237 °C | 0.78 °C
CN1CC[C@H](c2c(O)cc(O)c3c(=O)cc(-c4ccccc4Cl)oc23)[C@H](O)C1 [Alvocidib] | 1.86 °C | 1.55 °C | 1.31 °C | 1.46 °C
S=C(NCc1ccc2c(c1)OCO2)N1CCN(c2ncnc3c2oc2ccccc23)CC1 [Amuvatinib] | 1.93 °C | 0.233 °C | 0.377 °C | 1.16 °C

SMILES | ΔTm at 12.5 µM [1] | ΔTm at 12.5 µM [2] | ΔTm at 12.5 µM [3] | ΔTm at 12.5 µM [4]
N#CC1(c2ccc(NC(=O)c3cccnc3NCc3ccncc3)cc2)CCCC1 [Apatinib] | 0.223 °C | 0.55 °C | -0.113 °C | 0.843 °C
Cc1c(CN2CCN(C(=O)[C@H](C)O)CC2)sc2c(N3CCOCC3)nc(-c3cnc(N)nc3)nc12 [Apitolisib] | 1.4 °C | 3.51 °C | 0.847 °C | 1.55 °C
CNC(=O)c1ccccc1Sc1ccc2c(/C=C/c3ccccn3)n[nH]c2c1 [Axitinib] | 6.85 °C | 3.09 °C | 0.75 °C | 12.4 °C
CC[C@@H]1C(=O)N(C)c2cnc(Nc3ccc(C(=O)NC4CCN(C)CC4)cc3OC)nc2N1C1CCCC1 [BI 2536] |  |  | 4.13 °C | 
Cc1c(NC(=O)OC[C@@H]2COCCN2)cn2ncnc(Nc3ccc4c(cnn4Cc4cccc(F)c4)c3)c12 [BMS-599626] | 2.62 °C | 0.293 °C | 2.18 °C | 4.37 °C
C[C@@]1(C(=O)Nc2ccc(F)nc2)CCCN1c1nc(Nc2cc(C3CC3)n[nH]2)c2cccn2n1 [BMS-754807] | 0.483 °C | 5.21 °C | -0.337 °C | 2.91 °C
CCn1c(C(=O)N(C2CC2)C2CC2)cc2c3c(ncn3C)c(Nc3cc(C)n(C)n3)nc21 [BMS-911543] | 1.25 °C | 0.99 °C | 1.58 °C | 4.41 °C
O=C(Nc1cccc(Nc2ncc(Br)c(NCCc3cnc[nH]3)n2)c1)N1CCCC1 [BX-912] | 9.95 °C | 8.25 °C | 4.05 °C | 15.9 °C
Cc1nc(NC(=O)N2CCC[C@H]2C(N)=O)sc1-c1ccnc(C(C)(C)C(F)(F)F)c1 [BYL719] | 4.38 °C | 0.743 °C | 2.41 °C | 3.88 °C
Cc1ccc(NC(=O)c2ccc(CN3CC[C@H](N(C)C)C3)c(C(F)(F)F)c2)cc1Nc1nccc(-c2cncnc2)n1 [Bafetinib] | 1.07 °C | 2.51 °C | 4.57 °C | 1.1 °C
COc1cc(Nc2c(C#N)cnc3cc(OCCCN4CCN(C)CC4)c(OC)cc23)c(Cl)cc1Cl [Bosutinib] | 3.03 °C | 1.25 °C | 9.42 °C | 5.88 °C
Cc1cc2c(F)c(Oc3ncnn4cc(OC[C@@H](C)O)c(C)c34)ccc2[nH]1 [Brivanib] | 1.34 °C | 0.977 °C | 0.347 °C | 0.81 °C
Nc1cc(C(F)(F)F)c(-c2cc(N3CCOCC3)nc(N3CCOCC3)n2)cn1 [Buparlisib] | 0.317 °C | 1.75 °C | -0.927 °C | 0.573 °C
C#Cc1cccc(Nc2ncnc3cc(OC)c(OCCCCCCC(=O)NO)cc23)c1 [CUDC-101] | 0.713 °C | 0.407 °C | 2.77 °C | 0.917 °C
COc1cc2nccc(Oc3ccc(NC(=O)C4(C(=O)Nc5ccc(F)cc5)CC4)cc3)c2cc1OC [Cabozantinib] | 0.82 °C | 0.713 °C | 2.46 °C | 0.743 °C
CS(=O)(=O)N1CCN(Cc2cc3nc(-c4cccc5[nH]ncc45)nc(N4CCOCC4)c3s2)CC1 [Pictilisib] | 2.3 °C | 5.92 °C |  | 4.67 °C
